Data set [1] has as its target T1, saCodY (Staphylococcus aureus, UniProt A7X1N2).
T1 sequence (A7X1N2 1-257): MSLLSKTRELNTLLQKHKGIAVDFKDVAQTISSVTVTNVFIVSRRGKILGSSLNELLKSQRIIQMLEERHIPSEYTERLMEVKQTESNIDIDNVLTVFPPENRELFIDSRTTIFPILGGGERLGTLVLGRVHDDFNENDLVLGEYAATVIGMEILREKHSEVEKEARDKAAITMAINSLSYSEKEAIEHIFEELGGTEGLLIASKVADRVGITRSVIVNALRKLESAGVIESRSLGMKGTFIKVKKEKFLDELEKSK
In words: surface plasmon resonance. The data set is classed as binding.

Data set [2] has as its target saCodY (Staphylococcus aureus, UniProt A7X1N2, H70A/K158A/K47A/R45A/S43A). Nature of the data set: biochemical.
Data set [3] has as its target saCodY (Staphylococcus aureus, UniProt A7X1N2, E153A). In words: biochemical.
The target of another data set is T2, bcCodY (Bacillus cereus, UniProt Q819X8).
T2 sequence (Q819X8 1-259): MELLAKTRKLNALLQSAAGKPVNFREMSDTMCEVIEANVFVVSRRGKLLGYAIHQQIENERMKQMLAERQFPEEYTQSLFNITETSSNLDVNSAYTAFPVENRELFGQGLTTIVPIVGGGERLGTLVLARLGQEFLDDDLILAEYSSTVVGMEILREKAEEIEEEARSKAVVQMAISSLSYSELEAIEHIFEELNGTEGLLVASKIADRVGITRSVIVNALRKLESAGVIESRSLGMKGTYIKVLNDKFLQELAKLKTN
Nature of the data set: size-exclusion chromatography, change of oligomeric state. The data set is classed as binding. Conditions: 1 mM GTP, pH 8.0, no Ile. (Size exclusion chromatography separates by hydrodynamic size, large species first.)

In a further data set the target is T3, saCodY E153A (Staphylococcus aureus, UniProt A7X1N2 1-257, E153A).
T3 sequence: T1 sequence (A7X1N2 1-257) with E153A
In words: EMSA. For orientation: Mobility shift assays separate free from complexed probe on a gel.

For the next data set, the target named is T4, saCodY 3P5A (Staphylococcus aureus, UniProt A7X1N2 1-257, S43A;R45A;K47A;H70A;K158A).
T4 sequence: T1 sequence (A7X1N2 1-257) with S43A, R45A, K47A, H70A, K158A
In words: EMSA.

The data set “SEC” deals with the molecule itself. Nature of the data set: SEC.
The data set “crystal structure” deals with the molecule itself. In words: crystal structure.

One may read the Kd as a measure of binding affinity in units of concentration. A low value points to higher affinity. The stoichiometry N is the number of molecules, sites or subunits per partner or assembly.

Residue numbers refer to the chain shown, from its start.

In turn, `Nc1nc2c(ncn2[C@@H]2O[C@H](COP(=O)(O)OP(=O)(O)O)[C@@H](O)[C@H]2O)c(=O)[nH]1` [GDP] showed a Kd on saCodY [1] of 17 mM. Same read-out and setting: to `Nc1nc2c(ncn2[C@@H]2O[C@H](COP(=O)(O)O)[C@@H](O)[C@H]2O)c(=O)[nH]1` [GMP] belongs 20 mM. On to `Nc1nc2c(ncn2[C@@H]2O[C@H](COP(=O)(O)OP(=O)(O)OP(=O)(O)O)[C@@H](O)[C@H]2O)c(=O)[nH]1` [GTP], for which the Kd on saCodY [2] amounted to 35 mM; on saCodY [1], 2.26 mM; on saCodY [3] it was 28 mM. Also, the “size-exclusion chromatography, change of oligomeric state” value on bcCodY is “after incubation of saCodY and bcCodY with GTP, the proteins eluted at much smaller sizes”. `Nc1ncnc2c1ncn2[C@@H]1O[C@H](COP(=O)(O)OP(=O)(O)OP(=O)(O)O)[C@@H](O)[C@H]1O` [ATP]: on saCodY [1], the affinity, expressed as Kd, was 19 mM.

B1: ilvB promoter 45-mer (dsDNA)
DNA 1: CAGGTGGCGTCATGCAAGTCCCTGAGAATTTAATTTAATTTATTT
DNA 2: AAATAAATTAAATTAAATTCTCAGGGACTTGCATGACGCCACCTC
Turning to B1, the binding signal was 1.7 fold Kd vs WT without GTP in the data set with saCodY E153A and 3 fold Kd vs WT without GTP in the data set with saCodY 3P5A.

B2: CodY from Staphylococcus aureus (saCodY), wild type (natural protein, UniProt A7X1N2 1-257, looked up)
chain: T1 sequence (A7X1N2 1-257)
As for B2, the “stoichiometry N” value in the data set “SEC” is 4; in “crystal structure”, 2.

B3: CodY from Bacillus cereus (bcCodY), wild type (natural protein, UniProt Q819X8 1-259, looked up)
chain: T2 sequence (Q819X8 1-259)
For the molecule B3, the “stoichiometry N” value in the data set “SEC” was 4.
